Results from ChEMBL document CHEMBL1142139, “In vitro-clinical correlations for amphotericin B susceptibility in AIDS-associated cryptococcal meningitis” (2007).

System: Cryptococcus neoformans
Assay: Antimicrobial activity against Cryptococcus neoformans isolates in CSF from meningitis patients after 14 day iv treatment
Format: functional

Structure (SMILES): C[C@@H]1[C@H](O)[C@@H](C)/C=C/C=C/C=C/C=C/C=C/C=C/C=C/[C@H](O[C@@H]2O[C@H](C)[C@@H](O)[C@H](N)[C@@H]2O)C[C@@H]2O[C@](O)(C[C@@H](O)C[C@@H](O)[C@H](O)CC[C@@H](O)C[C@@H](O)CC(=O)O[C@H]1C)C[C@H](O)[C@H]2C(=O)O [AMPHOTERICIN B]
- CFU/ml: 0
